One assay has as its target T1, ACAT (Oryctolagus cuniculus, UniProt G1SFD9).
T1 construct: from tissue; host or cells: domestic rabbit intestinal mucosa, microsome fraction (105,000×g precipitate)
T1 sequence (G1SFD9 1-524): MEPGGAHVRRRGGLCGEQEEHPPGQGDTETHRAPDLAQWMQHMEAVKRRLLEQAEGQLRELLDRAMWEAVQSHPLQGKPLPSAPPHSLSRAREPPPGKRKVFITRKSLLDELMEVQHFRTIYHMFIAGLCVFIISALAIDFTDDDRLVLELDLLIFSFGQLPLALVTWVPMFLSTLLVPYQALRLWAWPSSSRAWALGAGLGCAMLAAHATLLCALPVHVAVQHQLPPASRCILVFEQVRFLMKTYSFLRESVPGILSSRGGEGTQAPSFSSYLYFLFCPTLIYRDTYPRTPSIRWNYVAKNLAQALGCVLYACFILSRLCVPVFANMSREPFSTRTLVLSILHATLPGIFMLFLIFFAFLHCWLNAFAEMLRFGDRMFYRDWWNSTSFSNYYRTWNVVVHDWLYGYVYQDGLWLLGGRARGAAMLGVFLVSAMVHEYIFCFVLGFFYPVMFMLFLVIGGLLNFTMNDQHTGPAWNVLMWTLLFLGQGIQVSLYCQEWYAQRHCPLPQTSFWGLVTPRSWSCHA
The assay can be described thus: ACAT enzyme inhibitory activity of rabbit intestinal mucosa. The assay is classed as biochemical. The following applies: rabbit intestinal mucosa microsome, [1-14C] oleoyl CoA, 37° C., pH 7.4. The protocol:
Measurement of ACAT enzyme inhibitory activity (measurement of ACAT enzyme inhibitory activity of rabbit intestinal mucosa)
Preparation of a domestic rabbit intestinal mucosa microsome and measurement of the ACAT enzyme activity were conducted by slightly modifying a method established by Salone and Field (see Biochemica et Biophysica, vol. 712, 557 (1982).
The supernatant was further centrifuged at 105,000×g and a temperature of 4° C. for one hour to provide a precipitate. The precipitate was resuspended in the buffer A to provide a microsome fraction.
A 1 %v/v dimethylsulfoxide solution of each specimen compound in a predetermined concentration was added to the buffer A containing 43 μM serum albumin and 0.5 mg/ml microsome fraction, and the mixture was heated at 37° C. for 5 min.
Then, 43 μM oleoyl CoA containing [1^-14 C] oleoyl CoA (3.7 kB) was added thereto, the mixture was heated at 37° C. for 10 rain, and chloroform/methanol (2/1) containing 10 mg/ml cholesteryl oleate was added thereto to terminate the reaction.
0.111 kB of [^3 H] cholesteryl oleate and 1N hydrochloric acid were added thereto, and the mixture was stirred. The cholesteryl oleate extracted into the chloroform layer was isolated by thin-layer chromatography, and the radioactivity was measured as the ACAT activity.

For the next assay, the system named is serum cholesterol. The assay can be described thus: percentage change of serum cholesterol in cholesterol-fed rats. The assay is classed as in vivo, Male Wistar rats. Conditions: Rattus norvegicus, 72 h, once a day for three days, cholesterol-enriched feed, vs control; for change in vivo at 1 mg/kg: 1 mg/kg oral; for change in vivo at 10 mg/kg: 10 mg/kg oral. From the text:
Measurement of percentage change of serum cholesterol
Male Wistar rats having a weight of 200 g were preliminarily bred for 7 days while they freely ingested a normal feed (CE-2 manufactured by CLEA Japan Inc.).
Thereafter, they were bred for 3 days while they freely ingested a feed enriched with cholesterol and fat (2% cholesterol, 1% cholic acid, 20% casein, 45% fine granulated sugar, 12% coconut oil, 4% KC flock, 1% mixed vitamin, 7% mixed mineral and 8% dried fish powder; a product of CLEA Japan Inc.). During the cholesterol loading period, the test compound of the present invention was orally administered to the above test animals at a dose of 0.1 to 10 mg per kg of the weight once a day for three days. On the other hand, the excipient alone was administered to the control animals.
After 8 hrs from the last administration, the test animals were fasted. 16 hr after the initiation of the fasting, these test animals were slaughtered. The serum cholesterol level was measured for each animal.
The results were compared with those of the control and are given as percentage serum cholesterol (%) in Table 3.
Percentage change of serum cholesterol (%)={(A-B)/B}×100
wherein A represents the total cholesterol level of serum in the group of rats to which the test compound was administered; and B represents the total cholesterol level of serum in the control group of rats.

Our source for the IC50 and change in vivo values is US5496853A, “Benzoxa condensed ring compounds, process for producing the same and pharmaceutical composition comprising the same” (Teijin Limited, priority 1990, dated 1996).

Structures can show the parent of a compound that is named as a salt.

As to `Cc1cc(C)c(NC(=O)C(C)(C)CCCCCCN(C)Cc2ccccc2)c2c1CC(C)(C)O2` [Ex. 74 (HCl salt)], on ACAT, half-maximal inhibition (IC50) required 330 nM.

As for `CCCCCCCCCCOc1ccc(C(=O)C(C)(C)C(=O)Nc2c(C)cc(C)c3c2OC(C)(C)C3)cc1` [Ex. 80], the IC50 on ACAT is 40 nM.

At ACAT, `Cc1cc(C)c(NC(=O)C(C)(C)CCCCCCOc2ccc(N(C)C)cc2)c2c1CC(C)(C)O2` [Ex. 71] came in with an IC50 of 130 nM. Also, the change in vivo at 1 mg/kg in the assay on serum cholesterol is -49%.

On ACAT, `Cc1cc(C)c(NC(=O)C(C)(C)CCCCOCCCC(C)C)c2c1CC(C)(C)O2` [Ex. 47] showed an IC50 of 190 nM.

Molecule `CCCCCCCCCCNc1ccc(C(=O)Nc2c(C)cc(C)c3c2OC(C)(C)C3)cc1` [Ex. 33] came in with an IC50 on ACAT of 110 nM.

`Cc1cc(C)c(NC(=O)C(C)(C)CCCCOc2ccc(C(C)(C)C)cc2)c2c1CC(C)(C)O2` [Ex. 58] registered an IC50 against ACAT of 170 nM. For the same molecule, in the assay with serum cholesterol, the change in vivo at 10 mg/kg was -27%.

`Cc1cc(C)c(NC(=O)C(C)(C)CCCCCOc2ccc(N)cc2)c2c1CC(C)(C)O2` [Ex. 66] displayed an IC50 on ACAT of 460 nM.

For the molecule `Cc1ccc(OCCCCCC(C)(C)C(=O)Nc2c(C)cc(C)c3c2OC(C)(C)C3)c(C)c1` [Ex. 64], on ACAT, half-maximal inhibition (IC50) required 910 nM.

For `Cc1cc(C)c(NC(=O)C(C)(C)CCCCCCOc2ccc(F)cc2)c2c1CC(C)(C)O2` [Ex. 70], on ACAT, 110 nM corresponded to half-maximal inhibition (IC50).

Regarding `CCCCCCCCCCC1(C(=O)Nc2cccc3nc(-c4ccccc4)oc23)CCCC1` [Ex. 18], at ACAT, the IC50 was determined as 500 nM.

Consider `Cc1cc(C)c(NC(=O)C(C)(C)CCCc2ccc(CC(C)C)cc2)c2c1CC(C)(C)O2` [Ex. 45], for which 28 nM corresponded to half-maximal inhibition against ACAT (IC50). Moreover, in the assay with serum cholesterol, the change in vivo at 1 mg/kg is -58%.

With `CCCCCCCCCCCCCCCC(=O)Nc1c(C)cc(C)c2c1OC(C)(C)C2` [Ex. 81], the IC50 on ACAT worked out at 260 nM.

For `Cc1ccc2c(c1NC(=O)C(C)(C)CCCCOc1ccc(C(C)(C)C)cc1)OC(C)(C)C2` [Ex. 37], on ACAT, the IC50 is 340 nM.

In the case of `CCCCCCCCCCC1(C(=O)Nc2c(C)ccc3c2OC(C)(C)C3)CCCC1` [Ex. 36], the change in vivo at 10 mg/kg with serum cholesterol was -52%.

Molecule `Cc1cc(C)c(NC(=O)C(C)(C)CCCCCOCCc2ccccc2)c2c1CC(C)(C)O2` [Ex. 54] yielded an IC50 against ACAT of 100 nM.

Consider `Cc1cc(C)c(NC(=O)C(C)(C)CCCCCOc2ccc(Cl)cc2)c2c1CC(C)(C)O2` [Ex. 61], for which the change in vivo at 1 mg/kg with serum cholesterol is -64%.

As to `Cc1cc(C)c(NC(=O)C(C)(C)CCCCCOc2ccc(C(C)C)cc2)c2c1CC(C)(C)O2` [Ex. 65], the IC50 against ACAT turned out to be 86 nM.

As to `Cc1cc(C)c(NC(=O)C(C)(C)CCCCOCc2ccccc2)c2c1CC(C)(C)O2` [Ex. 53], the change in vivo at 10 mg/kg in the assay with serum cholesterol was -50%.

As for `CCCCCCCCCCC(C)(C)C(=O)Nc1c(C)cc(C)c2c1OC(C)(C)C2` [Ex. 5, N-(2,2,4,6-tetramethyl-2,3-dihydrobenzofuran-7-yl)-2,2-dimethyldodecaneamide], the change in vivo at 1 mg/kg in the assay with serum cholesterol was -61%.

With `Cc1cc(C)c(NC(=O)C(C)(C)CCCCCCN2CCN(Cc3ccccc3)CC2)c2c1CC(C)(C)O2` [Ex. 79], at ACAT, the IC50 came out at 350 nM.

As to `Cc1cc(C)c(NC(=O)C(C)(C)CCCCCc2ccccc2)c2c1CC(C)(C)O2` [Ex. 42], the change in vivo at 1 mg/kg in the assay with serum cholesterol is -44%.

As to `Cc1cc(C)c(NC(=O)C(C)(C)CCCCCOc2ccc(N(C)C)cc2)c2c1CC(C)(C)O2` [Ex. 67], the IC50 against ACAT turned out to be 190 nM.

Turning to `Cc1cc(C)c(NC(=O)C(C)(C)CCCCCCBr)c2c1CC(C)(C)O2` [Ex. 38], on ACAT, the IC50 is 180 nM.

On to `CCCCCCCCCCC1(C(=O)Nc2cccc3nc(-c4cccnc4)oc23)CCCC1` [Ex. 2, N-[2-(3-pyridyl)benzoxazol-7-yl]-1-decylcyclopentanecarboxamide], for which the midpoint of inhibition against ACAT, the IC50, lay at 830 nM.

Take `Cc1cc(C)c(NC(=O)C(C)(C)CCCCCCOc2ccc(Cl)cc2)c2c1CC(C)(C)O2` [Ex. 68]: the change in vivo at 1 mg/kg with serum cholesterol was -75%.

Consider `Cc1ccc(OCCCCCC(C)(C)C(=O)Nc2c(C)cc(C)c3c2OC(C)(C)C3)cc1` [Ex. 62], for which, at ACAT, the IC50 came out at 64 nM. The change in vivo at 1 mg/kg with serum cholesterol is -18%.

As to `CCCCCCCCCCC1(C(=O)Nc2c(C)c(C)cc3nc(-c4ccccc4)oc23)CCCC1` [Ex. 20], the change in vivo at 10 mg/kg with serum cholesterol was -46%.

`Cc1cc(C)c(NC(=O)C(C)(C)CCCCCOCCOC(C)C)c2c1CC(C)(C)O2` [Ex. 55] displayed an IC50 on ACAT of 170 nM.

As for `Cc1cc(C)c(NC(=O)C(C)(C)CCCCCOc2ccc(Cl)cc2Cl)c2c1CC(C)(C)O2` [Ex. 63], the IC50 at ACAT came out at 220 nM.

For the molecule `CCCCCCOc1ccc(CCCC(C)(C)C(=O)Nc2c(C)cc(C)c3c2OC(C)(C)C3)cc1` [Ex. 46], half-maximal inhibition against ACAT (IC50) was put at 34 nM.

`CCCc1ccc(CCCC(C)(C)C(=O)Nc2c(C)cc(C)c3c2OC(C)(C)C3)cc1` [Ex. 44] came in with an IC50 on ACAT of 66 nM.

Turning to `CCCCCCCCCCOc1ccc(C(=O)CC(=O)Nc2c(C)cc(C)c3c2OC(C)(C)C3)cc1` [Ex. 88, N-(2,2,4,6-tetramethyl-2,3-dihydrobenzofuran-7-yl)3-(4-decyloxyphenyl)-3-oxpropaneamide], the IC50 on ACAT was 110 nM.

Turning to `Cc1cc(C)c(NC(=O)C(C)(C)CCCCOc2ccc(Cl)cc2)c2c1CC(C)(C)O2` [Ex. 59], in the assay on serum cholesterol, the change in vivo at 1 mg/kg was -43%.

For the molecule `Cc1cc(C)c(NC(=O)C(C)(C)CCCCCCOCC(C)C)c2c1CC(C)(C)O2` [Ex. 49], in the assay on serum cholesterol, the change in vivo at 1 mg/kg is -50%.

As for `Cc1cc(C)c(NC(=O)C(C)(C)CCCCCOc2ccc([N+](=O)[O-])cc2)c2c1CC(C)(C)O2` [Ex. 10, N-(2,2,4,6-tetramethyl-2,3-dihydrobenzofuran-7-yl)-[2,2-dimethyl-7-(4-nitrophenyloxy)]heptaneamide], the IC50 at ACAT came out at 230 nM.

Molecule `CCCCCCCCC(C)(C)C(=O)Nc1c(C)cc(C)c2c1OC(C)(C)C2` [Ex. 39] had an IC50 on ACAT of 72 nM.

In the case of `Cc1cc(C)c(NC(=O)C(C)(C)CCCCCCNCc2ccc(Cl)cc2)c2c1CC(C)(C)O2` [Ex. 73 (HCl salt)], the IC50 against ACAT was 340 nM.

Molecule `Cc1cc(C)c(NC(=O)C(C)(C)CCCCCCN(C)Cc2ccc(Cl)cc2)c2c1CC(C)(C)O2` [Ex. 75] showed an IC50 at ACAT of 120 nM.

Regarding `Cc1cc(C)c(NC(=O)C(C)(C)CCCCN2CCN(Cc3ccccc3)CC2)c2c1CC(C)(C)O2` [Ex. 78], at ACAT, the IC50 was 330 nM. In addition, the change in vivo at 10 mg/kg with serum cholesterol is -43%.

As to `Cc1cc2nc(-c3ccccc3)oc2c(NC(=O)NCC2(c3ccccc3)CCCC2)c1C` [Ex. 13], the IC50 against ACAT is 400 nM.

The molecule `Cc1ccc2c(c1NC(=O)NCC1(c3ccccc3)CCCC1)OC(C)(C)C2` [Ex. 3] registered an IC50 against ACAT of 340 nM.

On to `CCCOCCCCCCOc1ccc(C(=O)Nc2c(C)cc(C)c3c2OC(C)(C)C3)cc1` [Ex. 29], for which, in the assay on serum cholesterol, the change in vivo at 1 mg/kg was -23%.

Molecule `COCCCCCCC(C)(C)C(=O)Nc1c(C)cc(C)c2c1OC(C)(C)C2` [Ex. 56] yielded an IC50 at ACAT of 330 nM.

`Cc1cc(C)c(NC(=O)C(C)(C)CCCCCCOCCCC(C)C)c2c1CC(C)(C)O2` [Ex. 48]: at ACAT, half-maximal inhibition (IC50) was put at 57 nM.

`CCCCCCCCCCCCNC(=O)Nc1c(C)ccc2c1OC(C)(C)C2` [Ex. 23]: the IC50 on ACAT was 220 nM.

As for `CCCCCCCCCCC(C)(C)C(=O)Nc1c(C)c(N(C)C)c(C)c2c1OC(C)(C)C2` [Ex. 8, N-(5-dimethylamino-2,2,4,6-tetramethyl-2,3-dihydrobenzofuran-7-yl)-2,2-dimethyldodecaneamide], the change in vivo at 1 mg/kg with serum cholesterol is -71%.

Regarding `CCCCCCCCCCC(C)(C)C(=O)Nc1c(C)c([N+](=O)[O-])c(C)c2c1OC(C)(C)C2` [Ex. 6, N-(2,2,4,6-tetramethyl-5-nitro-2,3-dihydrobenzofuran-7-yl)-2,2-dimethyldodecaneamide], at ACAT, the IC50 amounted to 19 nM.

For `CCCCCCCCCCCCCCCC(=O)Nc1c(C)c(Cl)c(C)c2c1OC(C)(C)C2` [Ex. 83], the IC50 at ACAT is 72 nM.

Broadly, the IC50 is the concentration that gives 50% inhibition. Higher therefore signals weaker potency in that assay.
